How the values were obtained:
[1] = test system: lung cancer cell lines (NCI-H1975, NCI-H2444, NCI-H1650) and melanoma cell lines (SK-MEL28 and A375); experiment: Viability assay (PrestoBlue), MAPK-driven cancer cell lines; type: cell-based; conditions: all MAPK-driven cancer cell lines, 96 hours treatment
Description: Cell viability was determined by Prestoblue and presented as percent of vehicle. Three independent biological replicates were used to calculate the average. […] Two-sided t-test, **P<0.01 for corresponding comparisons.
The NCI-H1650 lung cancer cell line containing heterozygous deletion in EGFR (delE746-A750) was treated with two different siRNAs to INTS11, or control non-targeting siRNAs, and cellular proliferation was measured using 5-ethynyl-2′-deoxyuridine (EdU), a sensitive and quantitative measure of cellular growth. […] SK-MEL28 also contains a homozygous EGFR mutation (P753S).
(§1) The cells were plated 5000 per well in 96-well black plates with a clear bottom and maintained under normal conditions over night before the drug treatment. The cell viability was measured 4 days after treatment using PrestoBlue (Invitrogen cat No A13261). GraphPad Prism software was used to generate dose response curves and calculate IC50 values. Each experiment was repeated at least three times.

[2] = test system: ovarian cancer cell lines (A2780, OVCAR10, PEO1, PEO4); experiment: Viability assay (PrestoBlue), ovarian cancer cells; type: cell-based
Description: Cell viability was determined by Prestoblue and presented as percent of vehicle. Three independent biological replicates were used to calculate the average. Two-sided t-test, **P<0.01 for corresponding comparisons.
Therefore, ovarian cancer cells were used to assess the effectiveness of targeting Integrator in cancers without activating mutations in the MAPK pathway. Phendione was compared with the conventional chemotherapeutic drug, cisplatin, a DNA crosslinking agent, which is frequently used in the treatment of the ovarian cancer. The effectiveness of INTS11 depletion in reducing the proliferation of PEO4 ovarian cancer cells was first measured (FIGS. 11, 12A, and 12B). Next, four ovarian cancer cell lines were treated with phendione or cisplatin.
as §1

[3] = test system: IMR90 human fibroblasts and BEAS-2B normal lung epithelial cells; experiment: Cell viability of normal cells; type: cell-based; conditions: IMR90 and BEAS-2B
Description: as §1

[4] = test system: EGF-responsive genes in A549 lung adenocarcinoma cells; experiment: EGF-induced gene expression by Chromatin RNA-seq in A549 cells; type: cell-based, human; conditions: A549 cells (KRAS G12S), treated prior to stimulation with EGF
Description: In brief, the NEBNext Ultra RNA and the ChIP-Seq Library Prep Kits for Illumina (E7420, E6240, from New England Biolabs) were used to prepare the sequencing library. The sequencing was performed as a 75 bp single-end run using the NextSeq 500 High Output Kit provided by the Oncogenomics Core Facility at the Sylvester Comprehensive Cancer Center in the University of Miami Miller School of Medicine.
RNA-seq data were aligned to human genome (hg19 version) using TopHat2, and differential expression analysis was performed using Cuffdiff 2.2.1 with default parameters. […] The differential expression was considered significant when the q-value <0.05, fold change >2 and FPKM >1 for protein coding genes and FPKM >0.5 for eRNAs. Heat maps were generated using SpotFire with Decision Site for Functional Genomics (SpotFire Inc., Somerville, Mass., USA).

RSK1 phosphorylation = experiment: Immunoblot of downstream MAPK target phosphorylation in HeLa cells; type: cell-based, human; conditions: SCH772984 1 μM for 3 hours
Description: FIG. 4A is an immunoblot of HeLa cells that were transduced with doxycycline-inducible shRNAs targeting INTS11 and treated with ERK inhibitor (SCH772984, 1 μM) for 3 hours.
Integrator depletion abrogates EGF transcriptional responsiveness in HeLa cells. See Gardini, A. et al Molecular Cell 56, 128-139 (2014). To dissect the signaling pathway that mediates the EGF transcriptional response of immediate early genes (IEGs), HeLa cells were treated with an ERK1/2 inhibitor (SCH772984) prior to EGF stimulation and analyzed EGF responsive gene expression using Chromatin RNA-sequencing (ChromRNA-seq), which provides for an enriched fraction of nascent RNAs. There were 106 genes that consistently respond (2-fold induction) to EGF stimulation at the 20-minute time point.
Antibodies used for CHIP and immunoblot include: INTS11 (A301-274A, Bethyl Laboratories, Inc., Montgomery, Tex.), RNAPII (sc-899, Santa Cruz Biotechnology, Paso Robles, Calif.), GAPDH (sc-25778, Santa Cruz), phospo-ERK1/2 (#9101, Cell Signaling technology), ERK1/2 (#9102, Cell Signaling technology), Phospho-p90RSK (Thr359) (#8753, Cell Signaling technology), and RSK1 (#9333, Cell Signaling technology). Flag M2-conjugated beads (Sigma, 2220) were used for immunoprecipitation.

Structure (SMILES) | IC50 of viability compared with MAPK pathway inhibitors [1] | responsiveness of cisplatin-resistant ovarian cancer cells ([2]; A2780 and OVCAR10, known resistance to cisplatin) | sensitivity of cellular viability ([2]; all four ovarian cancer lines, 96 hours treatment) | sensitivity of normal cells (cell viability) [3] | EGF responsiveness of EGF-responsive genes [4] | phosphorylation of RSK1 (RSK1 phosphorylation)
O=C1C(=O)c2cccnc2-c2ncccc21 [phendione, 1,10-phenanthroline-5,6-dione] | IC50s less than or equal to that of MAPK pathway inhibitors | sensitive to phendione | exquisite sensitivity | sensitive to phendione | – | –
O=C(Nc1ccc2[nH]nc(-c3ccncc3)c2c1)[C@@H]1CCN(CC(=O)N2CCN(c3ccc(-c4ncccn4)cc3)CC2)C1 [SCH772984] | – | – | – | – | specifically diminished the EGF responsiveness of most EGF-responsive genes | abrogation of downstream MAPK-mediated target phosphorylation of RSK1

From patent US20190358220A1, “INTEGRATOR INHIBITORS AND METHODS FOR THEIR USE” (UNIVERSITY OF MIAMI, priority 2017, published 2019)
